Results: patent US20090054392A1, “NAPHTHYLPYRIMIDINE, NAPHTHYLPYRAZINE AND NAPHTHYLPYRIDAZINE ANALOGS AND THEIR USE AS AGONISTS OF THE WNT-BETA-CATENIN CELLULAR MESSAGING SYSTEM” (Wyeth, priority 2007, published 2009)

Test system: Dkk1-LRP5-TCF-Luciferase
Test: Functional Dkk1-LRP5-TCF-Luciferase Assay in U2OS Cells
Settings: for EC50 / fold induction at 2 µM / fold induction at 20 µM: Homo sapiens, U2OS; for fold induction at 2 µM: read-out: B = TCF ACTIVITY/DMSO CONTROL Fold induction @ 2.0 uM, 2.0 uM compound; for fold induction at 20 µM: read-out: C = TCF ACTIVITY/DMSO CONTROL Fold induction @ 20.0 uM, 20.0 uM compound; for A = MAX FOLD Induction/DMSO CONTROL: maximum fold induction over DMSO control
Method: Biological Evaluation—Functional Dkk1-LRP5-TCF-Luciferase Assay in U2OS Cells
Frozen U2OS-Dkk1-HTS Reporter cells generation: U2OS Human Bone derived cells (Osteosarcoma) are grown in McCoy's 5A Medium (Modified), with L -glutamine (GIBCO Cat No. 16600-082)+1% Pen-Strep+5% FBS) plated at 1×10^7 cells/T175 cm flask. The next day, the cells are co-transfected overnight with the following plasmids: (a) Test reporter (16×TCF-TK-FireFly-Luci), (b) Internal Control Reporter (TK-Renilla-Luci), (c) Wnt3a and (d) Dkk1. GIBCO's Lipofectamine 2000 and OptiMEM are used for the transfection. After a minimum of 4 hr of transfection at 37° C., the plasmid-transfected cells are trypsinized, counted, and suspended in freezing medium (95% FBS+5% DMSO). The reporter cells are frozen at 1×10^7/ml concentrations, aliquoted into 0.5 ml or 2.5 ml/tube and stored at 70° C.
The following day, test compounds are added under HTS setup by Plate Track into 384 well plates (white, TC treated, Falcon plate) such that the final concentration of the compounds in 20 μL/well cell will be 5 μg/ml (final concentration of DMSO=0.25% and final compound concentration=20 μM). Vials of frozen reporter cells are thawed by warming the vial in a 37° C. water bath for 60-120 seconds with some shaking until the cells formed a suspension. The thawed cells are transferred into a cold 50 ml (or larger) tube and mixed well by gentle pipetting. The appropriate amount of cold Phenol Red Free RPMI medium-1640 (GIBCO, Cat #11835-030) with L-glutamine is added, both with ˜5% FBS (GIBCO-BRL, Cat. #16000-044), so that 20 μl of the final cell suspension will contain ˜5,000 cells. The cell dilution is done such that the final concentration of FBS is ˜5%.
Diluted cells (20 μl) are added into each well in a 384 well plate. The plate is incubated at 37° C. under 5% CO2 for ˜20 h. Bright-Glo substrate, 2.5 μl/well is added, and the Fire Fly Luciferase is measured using VLUX (60 second exposure) immediately after the substrate is added. Test compounds are dissolved in DMSO (100%) and added to specified wells. Raw luciferase signal data obtained as relative luminescence units (RLUs) for the test compounds are normalized to the signal of the mean of the sample reporter cell plate with DMSO.

Molecule `CN(C)C[C@H]1CCN(c2nccc(-c3ccc4ccccc4c3)n2)C1` [N,N-dimethyl-1-{(3R)-1-[4-(2-naphthyl)pyrimidin-2-yl]pyrrolidin-3-yl}methanamine] has an EC50 of 1.02 µM, a fold induction at 2 µM of 2.83 and a fold induction at 20 µM of 0.01. For the same molecule, the “A = MAX FOLD Induction/DMSO CONTROL” value was 3.620 fold.
`CCN(CC)C(=O)N1CCC(CNc2nccc(-c3ccc4ccccc4c3)n2)CC1` [N,N-diethyl-4-({[4-(2-naphthyl)pyrimidin-2-yl]amino}methyl)piperidine-1-carboxamide] showed a fold induction at 2 µM of 1.22 and a fold induction at 20 µM of 1.04.
For `CCNC(=O)N1CCCN(c2nccc(-c3ccc4ccccc4c3)n2)CC1` [N-ethyl-4-[4-(2-naphthyl)pyrimidin-2-yl]-1,4-diazepane-1-carboxamide], the EC50 was 12.7 µM, the fold induction at 20 µM was 2.58 and the “A = MAX FOLD Induction/DMSO CONTROL” value was 1.640 fold.
With `O=C([C@@H]1CCCN1c1nccc(-c2ccc3ccccc3c2)n1)N1CCCCC1` [4-(2-naphthyl)-2-[(2S)-2-(piperidin-1-ylcarbonyl)pyrrolidin-1-yl]pyrimidine] the fold induction at 2 µM was 1.91.
For `CC(N)C1CCN(c2nccc(-c3ccc4ccccc4c3)n2)CC1` (centres unmarked) [1-{1-[4-(2-naphthyl)pyrimidin-2-yl]piperidin-4-yl}ethanamine], the EC50 was 1.09 µM, the fold induction at 2 µM was 2.33 and the fold induction at 20 µM was 0.006. The “A = MAX FOLD Induction/DMSO CONTROL” value was 2.891 fold.
`COc1ccc2cc(-c3ccnc(N4CCC(CN)CC4)n3)ccc2c1` [1-{1-[4-(6-methoxy-2-naphthyl)pyrimidin-2-yl]piperidin-4-yl}methanamine] was tested, and the EC50 was 1.06 µM, the fold induction at 2 µM was 2.27 and the “A = MAX FOLD Induction/DMSO CONTROL” value was 3.233 fold.
In the case of `CCOC(=O)N1CC[C@H](Nc2nccc(-c3ccc4ccccc4c3)n2)C1` [ethyl (3S)-3-{[4-(2-naphthyl)pyrimidin-2-yl]amino}pyrrolidine-1-carboxylate], the fold induction at 2 µM is reported as 1.28 and the fold induction at 20 µM is reported as 1.54.
`O=CN1CCCN(Cc2nccc(-c3ccc4ccccc4c3)n2)CC1` [4-{[4-(2-naphthyl)pyrimidin-2-yl]methyl}-1,4-diazepane-1-carbaldehyde] showed a fold induction at 2 µM of 1.15 and a fold induction at 20 µM of 1.13.
`CN(C)[C@@H]1CCN(C[C@H]2CCN(c3nccc(-c4ccc5ccccc5c4)n3)C2)C1` [(3R)—N,N-dimethyl-1-({(3R)-1-[4-(2-naphthyl)pyrimidin-2-yl]pyrrolidin-3-yl}methyl)pyrrolidin-3-amine] was tested, and the fold induction at 2 µM was 2.24, the fold induction at 20 µM was 0.02 and the “A = MAX FOLD Induction/DMSO CONTROL” value was 1.440 fold.
`c1ccc2cc(-c3ccnc(N[C@@H]4CCNC4)n3)ccc2c1` [4-(2-naphthyl)-N-[(3R)-pyrrolidin-3-yl]pyrimidin-2-amine] gave an EC50 of 9.23 µM, a fold induction at 2 µM of 1.76 and a fold induction at 20 µM of 3.98. The “A = MAX FOLD Induction/DMSO CONTROL” value was 6.560 fold.
`NC[C@@H]1C[C@H]2C[C@@H]1CN2c1nccc(-c2ccc3ccccc3c2)n1` [1-{(1S,4S,5R)-2-[4-(2-naphthyl)pyrimidin-2-yl]-2-azabicyclo[2.2.1]hept-5-yl}methanamine] gave a fold induction at 2 µM of 1.1.
`O=C(N1CCOCC1)N1CCC(Nc2nccc(-c3ccc4ccccc4c3)n2)CC1` [N-[1-(morpholin-4-ylcarbonyl)piperidin-4-yl]-4-(2-naphthyl)pyrimidin-2-amine] gave a fold induction at 2 µM of 1.03 and a fold induction at 20 µM of 1.07.
Work on `CC(C)(C)OC(=O)NCCC1CN(c2nccc(-c3ccc4ccccc4c3)n2)C1` [tert-butyl {2-[1-(4-naphthalen-2-ylpyrimidin-2-yl)azetidin-3-yl]ethyl}carbamate] yielded a fold induction at 20 µM of 1.6.
Work on `OC[C@H]1CCCN1c1nccc(-c2ccc3ccccc3c2)n1` [{(2R)-1-[4-(2-naphthyl)pyrimidin-2-yl]pyrrolidin-2-yl}methanol] yielded a fold induction at 2 µM of 1.85 and a fold induction at 20 µM of 1.78.
For `COC(=O)[C@@H](NC(=O)OC(C)(C)C)C1CCN(c2nccc(-c3ccc4ccccc4c3)n2)CC1` [methyl (2S)-[(tert-butoxycarbonyl)amino]{1-[4-(2-naphthyl)pyrimidin-2-yl]piperidin-4-yl}acetate], the fold induction at 20 µM was 0.7.
With `c1ccc2cc(-c3ccnc(NC4CCCCC4)n3)ccc2c1` [N-cyclohexyl-4-(2-naphthyl)pyrimidin-2-amine] the fold induction at 2 µM was 1.21, the fold induction at 20 µM was 1.51 and the “A = MAX FOLD Induction/DMSO CONTROL” value was 1.230 fold.
With `OC1CCCN([C@@H]2CCN(c3nccc(-c4ccc5ccccc5c4)n3)C2)C1` (stereo partly drawn) [1-{(3R)-1-[4-(2-naphthyl)pyrimidin-2-yl]pyrrolidin-3-yl}piperidin-3-ol] the EC50 was 3.64 µM, the fold induction at 2 µM was 2.06 and the fold induction at 20 µM was 1.05. For the same molecule, the “A = MAX FOLD Induction/DMSO CONTROL” value was 5.120 fold.
`O=Cc1ccc2cc(-c3ccnc(N4CCC(CNC(=O)C(F)(F)F)CC4)n3)ccc2c1` [2,2,2-trifluoro-N-({1-[4-(6-formyl-2-naphthyl)pyrimidin-2-yl]piperidin-4-yl}methyl)acetamide] was tested, and the fold induction at 2 µM was 1.11 and the fold induction at 20 µM was 0.04.
With `Cc1ccc(S(=O)(=O)N2CCC(N(C)c3nccc(-c4ccc5ccccc5c4)n3)CC2)cc1` [N-methyl-N-{1-[(4-methylphenyl)sulfonyl]piperidin-4-yl}-4-(2-naphthyl)pyrimidin-2-amine] the fold induction at 2 µM was 1.65.
`NC[C@H]1CC[C@H](c2nccc(-c3ccc4ccccc4c3)n2)CC1` [1-[trans-4-(4-naphthalen-2-ylpyrimidin-2-yl)cyclohexyl]methanamine] showed a fold induction at 2 µM of 3.5.
`c1ccc2cc(-c3ccnc(NCCCN4CCOCC4)n3)ccc2c1` [N-(3-morpholin-4-ylpropyl)-4-(2-naphthyl)pyrimidin-2-amine] was tested, and the EC50 was 23.8 µM, the fold induction at 2 µM was 1.68 and the fold induction at 20 µM was 3.27. For the same molecule, the “A = MAX FOLD Induction/DMSO CONTROL” value was 2.120 fold.
`CN1CCN(CC2CCN(c3nccc(-c4ccc5ccccc5c4)n3)C2)CC1` (centres unmarked) [2-{3-[(4-methylpiperazin-1-yl)methyl]pyrrolidin-1-yl}-4-(2-naphthyl)pyrimidine] was tested, and the fold induction at 2 µM was 2.7 and the “A = MAX FOLD Induction/DMSO CONTROL” value was 1.340 fold.
In the case of `NS(=O)(=O)c1ccc(CNc2nccc(-c3ccc4ccccc4c3)n2)cc1` [4-({[4-(2-naphthyl)pyrimidin-2-yl]amino}methyl)benzenesulfonamide], the fold induction at 2 µM is reported as 1.3 and the fold induction at 20 µM is reported as 1.06.
Work on `OC1CCN([C@@H]2CCN(c3nccc(-c4ccc5ccccc5c4)n3)C2)CC1` [1-{(3R)-1-[4-(2-naphthyl)pyrimidin-2-yl]pyrrolidin-3-yl}piperidin-4-ol] yielded a fold induction at 2 µM of 1.44 and a fold induction at 20 µM of 0.14.
Molecule `O[C@@H]1CCCN(CC2CCN(c3nccc(-c4ccc5ccccc5c4)n3)C2)C1` (stereo partly drawn) [(3R)-1-({1-[4-(2-naphthyl)pyrimidin-2-yl]pyrrolidin-3-yl}methyl)piperidin-3-ol] has an EC50 of 1.03 µM, a fold induction at 2 µM of 2.34 and a fold induction at 20 µM of 0.01. For the same molecule, the “A = MAX FOLD Induction/DMSO CONTROL” value was 3.745 fold.
`NC(=O)NC1CCCN(c2nccc(-c3ccc4ccccc4c3)n2)CC1` (centres unmarked) [N-{1-[4-(2-naphthyl)pyrimidin-2-yl]azepan-4-yl}urea] showed an EC50 of 20.4 µM, a fold induction at 2 µM of 1.62 and a fold induction at 20 µM of 2.89. For the same molecule, the “A = MAX FOLD Induction/DMSO CONTROL” value was 1.500 fold.
In the case of `c1ccc2cc(-c3ccnc(N4CC[C@@H](Cn5ccnc5)C4)n3)ccc2c1` [2-[(3S)-3-(1H-imidazol-1-ylmethyl)pyrrolidin-1-yl]-4-(2-naphthyl)pyrimidine], the fold induction at 2 µM is reported as 1.27, the fold induction at 20 µM is reported as 4.29 and the “A = MAX FOLD Induction/DMSO CONTROL” value is reported as 2.430 fold.
Work on `c1cncc(CNc2nccc(-c3ccc4ccccc4c3)n2)c1` [4-(2-naphthyl)-N-(pyridin-3-ylmethyl)pyrimidin-2-amine] yielded an EC50 of 5.9 µM, a fold induction at 2 µM of 1.55 and a fold induction at 20 µM of 1.41. The “A = MAX FOLD Induction/DMSO CONTROL” value was 1.960 fold.
`O=C(N[C@H]1CCN(c2nccc(-c3ccc4ccccc4c3)n2)C1)N1CCCC1` [N-{(3S)-1-[4-(2-naphthyl)pyrimidin-2-yl]pyrrolidin-3-yl}pyrrolidine-1-carboxamide] showed a fold induction at 2 µM of 1.89.
With `N#Cc1ccc(C(=O)NC2CCCC(Nc3nccc(-c4ccc5ccccc5c4)n3)C2)cc1` (centres unmarked) [4-cyano-N-(3-{[4-(2-naphthyl)pyrimidin-2-yl]amino}cyclohexyl)benzamide] the fold induction at 2 µM was 1.15 and the fold induction at 20 µM was 0.24.
For `NCC1CCN(Cc2nccc(-c3ccc4ccccc4c3)n2)CC1` [1-(1-{[4-(2-naphthyl)pyrimidin-2-yl]methyl}piperidin-4-yl)methanamine], the fold induction at 2 µM was 1.41 and the fold induction at 20 µM was 1.77.
Molecule `CC(=O)N1CCCN(c2nccc(-c3ccc4ccccc4c3)n2)CC1` [1-acetyl-4-[4-(2-naphthyl)pyrimidin-2-yl]-1,4-diazepane] has an EC50 of 7.3 µM, a fold induction at 2 µM of 1.46 and a fold induction at 20 µM of 3.21. For the same molecule, the “A = MAX FOLD Induction/DMSO CONTROL” value was 1.757 fold.
Work on `O=CN1CC[C@H](Nc2nccc(-c3ccc4ccccc4c3)n2)C1` [(3S)-3-{[4-(2-naphthyl)pyrimidin-2-yl]amino}pyrrolidine-1-carbaldehyde] yielded an EC50 of 6.8 µM, a fold induction at 2 µM of 1.8 and a fold induction at 20 µM of 3.51. The “A = MAX FOLD Induction/DMSO CONTROL” value was 3.165 fold.
`Cc1ccc(S(=O)(=O)N[C@@H]2CCN(c3nccc(-c4ccc5ccccc5c4)n3)C2)cc1` [4-methyl-N-{(3R)-1-[4-(2-naphthyl)pyrimidin-2-yl]pyrrolidin-3-yl}benzenesulfonamide] was tested, and the fold induction at 2 µM was 1.44 and the fold induction at 20 µM was 0.09.
For `CCNC(=O)NCC1CCN(c2nccc(-c3ccc4ccccc4c3)n2)C1` (centres unmarked) [N-ethyl-N′-({1-[4-(2-naphthyl)pyrimidin-2-yl]pyrrolidin-3-yl}methyl)urea], the fold induction at 2 µM was 0.93 and the fold induction at 20 µM was 1.2.
`CCN(CC)C(=O)N(C)CCN(C)[C@@H]1CCN(c2nccc(-c3ccc4ccccc4c3)n2)C1` [1,1-diethyl-3-methyl-3-[2-(methyl{(3R)-1-[4-(2-naphthyl)pyrimidin-2-yl]pyrrolidin-3-yl}amino)ethyl]urea] showed a fold induction at 2 µM of 1.93.
`c1ccc2cc(-c3ccnc(N4CC[C@H](Cn5ccnc5)C4)n3)ccc2c1` [2-[(3R)-3-(1H-imidazol-1-ylmethyl)pyrrolidin-1-yl]-4-(2-naphthyl)pyrimidine] was tested, and the fold induction at 2 µM was 1.95, the fold induction at 20 µM was 3.04 and the “A = MAX FOLD Induction/DMSO CONTROL” value was 3.290 fold.
